Literature values in patent US20250360113A1, “ADMINISTRATION OF DHB TO INCREASE BENEFIT OF LOSING WEIGHT OF INTERMITTENT FASTING” (NANJING NUTRABUILDING BIO-TECH CO., LTD., priority 2023, published 2025).

Legend:
[1] = obese db/db mice; cited from earlier work
brown adipocyte = conditions: by increasing transcription of PRDM16 via AMPK activation and PGC-1α recruitment; cited from earlier work

## COc1ccc2cc3[n+](cc2c1OC)CCc1cc2c(cc1-3)OCO2 [BBR, berberine]
[1]
  energy expenditure and adaptive thermogenesis: increase
  thermogenic program in BAT: promote
  weight gain: reduce
Brown adipocyte
  brown adipocyte differentiation and brown adipose tissues (BAT) thermogenesis: promote
